# Assay results reported in ChEMBL document CHEMBL3217630, “Intramolecular hydrogen bonding to improve membrane permeability and absorption in beyond rule of five chemical space” (Medchemcomm, 2011).
# Assays:
# [1] = (§1) Oral bioavailability in rat; format: ADME, organism-based; details: in vivo
# [2] = Fraction of the dose absorbed in rat; format: ADME, organism-based; details: in vivo, read-out: Fabs
# [3] = Oral bioavailability in human; format: ADME, organism-based; details: in vivo
# [4] = Apparent permeability across apical to basolateral side of MDCK cells; format: ADME, cell-based, Canis lupus familiaris; details: dog
# Rattus norvegicus = assay: as §1; format: ADME, organism-based; details: in vivo
bioavailability [1] [%],Fa [2] [%],bioavailability [3] [%],Papp A→B [4] [nm/s],F (Rattus norvegicus) [%],Structure (SMILES)
10,54,60,350,–,COC(=O)N[C@H](C(=O)N[C@@H](Cc1ccccc1)[C@@H](O)CN(Cc1ccc(-c2ccccn2)cc1)NC(=O)[C@@H](NC(=O)OC)C(C)(C)C)C(C)(C)C [ATAZANAVIR]
–,0.5,3,10,0.1,COCCCOc1cc(C[C@@H](C[C@H](N)[C@@H](O)C[C@H](C(=O)NCC(C)(C)C(N)=O)C(C)C)C(C)C)ccc1OC
